# Read-outs that look alike come from different tables or passages of the source.
# Legend:
# Assay type in all cases: cell-based
# MCMV = MCMV plaque reduction assay in HFF cells; details: read-out: MCMV, 50% effective concentration, EC50
# HCMV AD169 = HCMV AD169 plaque reduction assay in HFF cells
# Cowpox Brighton = test: organism not typed; details: read-out: Cowpox, 50% effective concentration, EC50
# HSV-1 [1] = test: HSV-1 plaque reduction assay
# HSV-2 = HSV-2 plaque reduction assay
# HSV-1 [2] = test: HSV-1 DNA reduction assay in MRC-5 cells
# Vaccinia WR = test: microbe, parasite or virus in culture; details: read-out: Vaccinia, 50% effective concentration, EC50
# HIV-1Lai = HIV-1Lai p24 reduction assay in MT-2 cells
# [3] = read-out: HCMV, 50% effective concentration, EC50
# [4] = read-out: HSV-1, 50% effective concentration, EC50
compound,measurement,setting,value
"Nc1ccn(C[C@@H](CO)OCP(=O)(O)O)c(=O)n1 [HPMPC, (S)-9-[3-hydroxy-2-(phosphonomethoxy)-propyl]cytosine, reference compound]",EC50,MCMV,40 nM
same,EC50,"HCMV AD169; Human betaherpesvirus 5, read-out: HCMV, 50% effective concentration, EC50",1200 nM
same,EC50,Cowpox Brighton; HFF,42000 nM
same,EC50,"HSV-1 [1]; Human alphaherpesvirus 1, read-out: HSV-1, 50% effective concentration, EC50",15000 nM
same,EC50,"HSV-2; Human alphaherpesvirus 2, read-out: HSV-2, 50% effective concentration, EC50",10500 nM
same,EC50,"HSV-1 [2]; Human alphaherpesvirus 1, MRC5, read-out: HSV-1, 50% effective concentration, EC50",3300 nM
same,EC50,"Vaccinia WR; Orthopoxvirus vaccinia, HFF",31000 nM
(1-(4-aminooxopyrimidin-1(2H)-yl)-3-hydroxypropan-2-yloxy)methylphosphonic(3-hexadecyloxy)propylphosphoric) anhydride [HDP-phospho-HPMPC],EC50,MCMV,350 nM
same,EC50,HCMV AD169; [3],100 nM
same,EC50,Cowpox Brighton,3900 nM
same,EC50,HSV-1 [1]; [4],130 nM
same,EC50,"HSV-2; read-out: HSV-2, 50% effective concentration, EC50",300 nM
same,EC50,HSV-1 [2]; [4],60 nM
same,EC50,Vaccinia WR,2800 nM
CCCCCCCCCCCCCCCCCCOCCOP(=O)(O)OP(=O)(O)CO[C@H](CO)Cn1ccc(N)nc1=O [ODE-phospho-HPMPC],EC50,MCMV,30 nM
same,EC50,HCMV AD169; [3],4 nM
same,EC50,Cowpox Brighton,540 nM
same,EC50,HSV-1 [2]; [4],0.02 nM
same,EC50,Vaccinia WR,320 nM
(2-(6amino-9H-purin-9-yl)ethoxy)methylphosphonic(3-hexadecyloxy)propylphosphonic)anhydride [HDP-phospho-ADV],EC50,"HIV-1Lai; read-out: HIV-1, 50% effective concentration, EC50",9 nM
"Nc1ncnc2c1ncn2CCOCP(=O)(O)O [ADV, phosphonomethoxyethyadenine, reference compound]",EC50,"HIV-1Lai; Human immunodeficiency virus 1, MT2, read-out: HIV-1, 50% effective concentration, EC50",1300 nM

# Reference: patent US20090156545A1, “Substituted Phosphate Esters of Nucleoside Phosphonates” (priority 2005, published 2009)
